The record followed here is a melting point compilation (Tetko et al.; mined from patent text by program, amines drawn as free bases though some values may be those of a salt).

One may read the melting point as the temperature, or range, at which the solid turns liquid.

Regarding `CCCCN(CCCC)c1ccc(C=CC2=C(C#N)C(=C(C#N)C#N)OC2(c2ccccc2)C(F)(F)F)c(OC)c1` (stereo not drawn), the melting point is 191 to 194 °C.

`CC(=NOCCO)c1ccc(S(=O)(=O)c2ccccc2)cc1` displayed a melting point of 87 to 88 °C.

For the compound `COc1ccc2[nH]c3c(C(=O)O)cccc3c2c1`, the melting point stood at 262 °C.

As for `O=C1C(=O)c2ccccc2C2=C1SCC1(CCCN(C(=O)c3cccc(Cl)c3)CC1)O2` (stereo not drawn), the melting point is 98 to 100 °C.

`N#CNc1ccccc1-c1ccc(Cl)cc1`: the melting point fell in the range of 106 to 107 °C.

Turning to `COc1cc(Br)c2c(c1)CCCN2`, the melting point lay within 125 to 126 °C.

The compound `CCCCCCCCCCCCCCCCCCOc1cc(C(=O)O)cc(C(=O)N(CC(=O)O)CC(=O)O)c1` displayed a melting point of 108 to 112 °C.

Consider `O=S(=O)(Nc1ccc(Cl)c(F)c1)c1ccccc1`, for which the melting point fell in the range of 115 to 116 °C.

Compound `COc1cc(NC(=O)CCCCCN2CCNCC2)c2nccc(C)c2c1` came in with a melting point of 122 to 124 °C.

For `N#Cc1ccnc(C(N)=O)c1N`, the melting point is over 310 °C.

Compound `CC(=O)Cc1ccc2c(c1)Cc1cccnc1O2` returned a melting point of 124 to 125 °C.

`CCCCCCCCC#CCC#CCC#CCS(=O)(=O)CC(=O)O` yielded a melting point of 132 °C.

As to `O=c1nc(N2CCN(c3cccc(C(F)(F)F)c3)CC2)sc2c([N+](=O)[O-])cc(C(F)(F)F)cc12`, the melting point lay within 201 to 203 °C.

On to `O=C1CCCc2cc(CCN3CCN(c4nsc5ccccc45)CC3)ccc2N1`, for which the melting point lay within 173 to 174 °C.

Turning to `CCOC(=O)c1ccc(-c2cc(O)c(C(CC(C)C)SC3CCCC3)c(=O)o2)cc1` (stereo not drawn), the melting point lay within 174 to 176 °C.

Turning to `O=C1c2c(F)c(F)c(F)c(F)c2C(=O)N1c1ccc(F)cc1F`, the melting point lay in the range of 145 to 146 °C.

For the compound `CCCc1c(OCc2cc(Br)c(C(=O)O)cc2OC)ccc(C(C)=O)c1O`, the melting point was 237 to 238 °C.

Consider `COCCCS(=O)(=O)NC(=O)CCc1ccc(OC(C)C)cc1Oc1ncc(C(F)(F)F)cc1Cl`, for which the melting point was 114 to 115 °C.

The compound `Cc1ccnc2c(Oc3ccc(N)cc3)cccc12` had a melting point of 157 to 159 °C.

The compound `CS(=O)(=O)c1cccc(NC(=O)c2cnn3c(Cl)cc(-c4ccc(Cl)cc4)nc23)c1` gave a melting point of 253 to 255 °C.

In turn, `COc1cc2oc(=O)c(CCOS(C)(=O)=O)c(C)c2cc1OC` showed a melting point of 188 to 191 °C.

As for `CCOc1nc(C2CC2)nc(OC)c1C=O`, the melting point fell in the range of 93 to 94 °C.

The compound `COC(=O)[C@H]1C[C@H](NS(C)(=O)=O)c2c(Cl)cc(Cl)cc2N1` (relative stereo) showed a melting point of 143 to 146 °C.

Compound `Cc1cc(C)c(C(=O)Nc2ccc(-n3nc(C(F)(F)F)cc3C(F)(F)F)cc2)c(C)c1` had a melting point of 203 to 205 °C.

In the case of `COc1ccc(C)c(Nc2c(C#N)cnc3cc(Cl)c([N+](=O)[O-])cc23)c1`, the melting point fell in the range of 180 to 182 °C.

In turn, `Clc1ccc2c(n1)[nH]c1ccc(Br)cc12` had a melting point of over 220 °C.

Take `Cc1cccc(Nc2nnc(C3OCOCO3)c3ccccc23)c1`: the melting point came out at 161 °C.

As for `Cc1cc(=O)c(OCc2ccccc2)c(C(=O)NC2CCCCC2)n1C`, the melting point was 258 to 260 °C.

In turn, `CCC1=NN=C(c2ccc(OC)c(OC)c2)c2cc(OC)c(OC)cc2C1CC` (stereo not drawn) gave a melting point of 142 to 144 °C.

The compound `FC(F)(F)c1cc(-c2ccc(Cl)cc2)nc2c(-c3ccncc3)ncn12` returned a melting point of 290 °C.

`CCOC(=O)N(CCOc1ccc(Oc2ccc(F)cc2)cc1)C(=O)OCC` showed a melting point of 52 to 53 °C.

`Cc1nc(CCO)c2c(n1)N(N)C(=O)C(C)(C)O2` returned a melting point of 168 to 170 °C.

`Cc1c(NC(=O)CC(C)(C)C)c(C)c2c(c1-c1ccc(N(C)C)cc1)OCC2c1ccc(C(C)C)cc1` (stereo not drawn): the melting point fell in the range of 180 to 181 °C.

Take `CC(C)C[C@H](NC(=O)CCC1CCCCC1)C(=O)N[C@@H](Cc1ccccc1)C(=O)CSCc1ccco1`: the melting point is 116 to 118 °C.

As for `CCCc1nc(C(=O)OC)c(C(=O)OC)n1Cc1ccc(-c2ccccc2-c2nnn[nH]2)cc1`, the melting point is 124 to 126 °C.

On to `O=C(NC1CCOCC1)c1ccc(-c2ccc3nnn(Cc4ccc5ncccc5c4)c3n2)cc1`, for which the melting point lay in the range of 202 to 205 °C.

In turn, `COc1ccc(NC(=O)c2ccccc2N)cc1` gave a melting point of 116 to 117 °C.

The compound `CCC(Cc1cc(C(C)(C)C)c(O)c(C(C)(C)C)c1)[N+](=O)[O-]` (stereo not drawn) had a melting point of 55 to 60 °C.

Regarding `O=C(O)CCCCCCCn1c(-c2ccc(O)cc2)nc(-c2ccccc2)c1-c1ccccc1`, the melting point was found to be 167 °C.

As for `CC1(C)NC(=O)OC12CCN(C(=O)OCc1ccccc1)CC2`, the melting point is 208 to 209 °C.

`CCNCC1CCN(c2c(F)cc3c(=O)c(C(=O)O)cn(C4CC4)c3c2OC)C1` (stereo not drawn): the melting point was 217 to 219 °C.

`COC(=O)CCCCCNC(=O)/C=C/C=C/c1ccccc1` gave a melting point of 125 to 127 °C.

Compound `CCOC(=O)c1cc2cc(N=[N+]=[N-])ccc2[nH]1` displayed a melting point of 140 °C.

Compound `O=C(OC(=O)c1cccnc1)c1cccnc1` gave a melting point of 162 to 164 °C.

The compound `CC(N1CCN(c2ncn(Cc3ccc(C(C)(C)C)cc3)n2)CC1)C(O)(Cn1cncn1)c1ccc(F)cc1F` (stereo not drawn) returned a melting point of 84 to 86 °C.

In the case of `CC(C)=NN=C(c1ccc(Cl)cc1)c1ccc(OS(C)(=O)=O)cc1`, the melting point lay within 148 to 149 °C.

Regarding `Cc1cc(C)cc(C(=O)N2CC[C@H](NCc3ccnc4ccccc34)C[C@H]2Cc2ccc(Cl)cc2)c1` (relative stereo), the melting point fell in the range of 148 to 149 °C.

`COc1ccc(-c2cc3cc(OC)c(OC)cc3c(C)n2)cc1OC` had a melting point of 168 to 169 °C.

Turning to `CN(C)C1Cc2cccc3ccn(c23)C1` (stereo not drawn), the melting point lay within 114 to 115 °C.

As to `N#CCCNC(=O)c1nn(C2CCCCO2)cc1NC(=O)c1cc(Cl)ccn1` (stereo not drawn), the melting point lay in the range of 218 to 219 °C.

Compound `CCOC(=O)/C=C/c1ccc(OCCOCCOC)cc1Oc1ncc(C(F)(F)F)cc1Cl` registered a melting point of 76.6 to 76.8 °C.

`COc1ccc([N+](=O)[O-])c(Nc2ccccc2O)n1`: the melting point lay in the range of 206 to 207 °C.

Compound `COc1ccc2c(c1)c(C(C)C(=O)O)cc(=O)n2-c1ccc(Cl)cc1` (stereo not drawn) came in with a melting point of 177 to 178 °C.

`COC(=O)C1=C(N)NC(C)=C([N+](=O)[O-])C1c1ccccc1OCCCCCN1CCN(c2ccccc2OC)CC1` (stereo not drawn): the melting point came out at 167 °C.

On to `CC(C)(C)[Si](C)(C)OC1CN(c2ccc(NC(=O)OCc3ccccc3)cc2F)C1`, for which the melting point lay in the range of 91 to 93 °C.

Compound `OC1CSC(Oc2ccc(-c3ccc(F)nc3)nc2Cl)C(O)C1O` (stereo not drawn) came in with a melting point of 199 °C.

`C#CCOC(=O)C1=C(C)NC(C)=C(C(=O)OCC)C1c1ccccc1C(F)(F)F` (stereo not drawn) gave a melting point of 130 °C.

For `O=C1CCOc2ccc(O)cc21`, the melting point was in the range of 133 to 136 °C.

As to `CCCCOC(=O)c1[nH]c(=O)c2cc(OC(C)C)ccc2c1O`, the melting point lay within 118 to 123 °C.

Turning to `O=c1ccc2ccc(CBr)cc2o1`, the melting point was 172 to 176 °C.

`CC(=O)N(N)c1ccc(C(F)(F)F)cc1NC(=O)c1ccccc1`: the melting point fell in the range of 212 to 214 °C.

`COc1cc(C(C)C)c2c(c1)S(=O)(=O)N(COc1cc(-c3ccccc3)nn1C)C2=O` showed a melting point of 126 to 128 °C.

`C=Cc1ccc(NS(C)(=O)=O)c(F)c1`: the melting point was found to be 82 °C.

`O=C(O)C(=O)c1ccc(OCC(=O)N2CCC(c3ccccc3)CC2)cc1` had a melting point of 209 to 210 °C.

In turn, `CC1(C)OC(=O)Nc2ccc(Br)cc21` returned a melting point of 199 to 200 °C.

`BrC(Br)c1nccnc1C(Br)Br`: the melting point lay in the range of 167 to 170 °C.

`CCCOc1ccc2[nH]c3c([N+](=O)[O-])ccc(Cl)c3c(=O)c2c1`: the melting point fell in the range of 174 to 175 °C.

`Cn1nc(CO)nc1NCCCCOc1cccc(CN2CCCCC2)c1` registered a melting point of 82 to 83 °C.

On to `COC(=O)c1ccc(CC(C)NCC(O)c2cccc(Cl)c2)cc1` (stereo not drawn), for which the melting point is 94 to 96 °C.

In turn, `CC(=O)SCc1ccccc1CCC(=O)Nc1cccc(C(=O)OCCBr)c1` gave a melting point of 85 to 88 °C.

`NC(=S)NCCN1CCC(Nc2nc3ccccc3n2Cc2ccc(F)cc2)CC1` gave a melting point of 186 °C.

The compound `CCOC(=O)c1nc(-c2ccc([N+](=O)[O-])cc2)[nH]c1-c1ccc(OCC)cc1` yielded a melting point of 214 to 217 °C.

`O=C1CCC(c2ccc(CCCCCNC(=O)c3cccnc3)cc2)=NN1` returned a melting point of 133 to 134 °C.

In turn, `CC(C)C[C@H](NC(=O)OCc1ccccn1)C(=O)N[C@@H](Cc1ccccc1)C(=O)CSCc1ccco1` had a melting point of 93 to 94 °C.

The compound `COC(=O)c1ccc(NC(=O)CCc2c(C)noc2-c2ccccc2)cc1` gave a melting point of 140 to 141 °C.

The compound `C=CCSc1ccc(Oc2cccc(C)c2)nn1` gave a melting point of 48 to 50 °C.

In turn, `CCN(CC)CCNC(=O)C1N=C(c2ccccc2)c2cc(Cl)ccc2NC1=O` (stereo not drawn) gave a melting point of 220 °C.

Regarding `O=C1CCCCC1c1ncc[nH]1` (stereo not drawn), the melting point was in the range of 104 to 105 °C.

On to `COc1ccc2cc(-c3cn([C@H]4CN5CCC4CC5)nn3)ccc2c1`, for which the melting point worked out at 186 °C.

For the compound `COC(=O)c1ccc2nc(SCCN3CCN(CC(=O)Nc4c(C(C)C)cccc4C(C)C)CC3)oc2c1C(=O)OC`, the melting point fell in the range of 186 to 187 °C.

As for `Cc1ccc(S(=O)(=O)N2CCCC2c2nnnn2[C@@](C)(Cc2ccc(N(C(=O)OC(C)(C)C)C(=O)C3CCNCC3)cc2)C(=O)O)cc1` (stereo partly drawn), the melting point was in the range of 180 to 189 °C.

As to `CCCCCC1CCc2c3c(c(F)c(F)c2O1)OC(C)C3` (stereo not drawn), the melting point turned out to be 76 °C.

On to `NC(=O)CCCCCc1cccc2cncn12`, for which the melting point fell in the range of 131 to 132 °C.

Take `Cc1ccnc(Nc2nc(-c3ccc4c(c3)OCCO4)cs2)c1`: the melting point was 230 to 240 °C.

Compound `COc1cc(-c2nnc(C)s2)cc2oc(=O)c(Cl)c(C)c12` displayed a melting point of 176 to 177 °C.

The compound `CNC(=O)[C@@H](NC(=O)Nc1n[nH]c(=S)s1)C(C)OCc1ccccc1` (stereo partly drawn) had a melting point of 187 to 189 °C.

In the case of `CCN1CC=C(c2ccc(Nc3ncc4ccc(-c5ccccc5N(C)S(C)(=O)=O)n4n3)c(OC)c2)CC1`, the melting point was in the range of 121 to 123 °C.

Regarding `CC(=O)Nc1ccc(C(=O)Nc2ccccc2NC(=O)CNC(=O)OC(C)(C)C)cc1`, the melting point was 125 to 126 °C.
